Measurements taken from patent publication US20230174584A1, “Antibiotic Compounds” (priority 2019, published 2023).
Converted amounts (≈) assume the structure as drawn.

How the values were obtained:
Assay type in all cases: cell-based, Staphylococcus aureus
NRS63SH = assay: MIC assay, VISA and VRSA panel
Description: (§1) The antibacterial activity of the compounds was tested against a panel of bacteria, including Gram-positive bacteria (S. aureus ATCC29213, S. aureus USA300, S. aureus LIM-2, NR-45881, S. aureus HIP13419, NR-46413, E. faecium E155, E. faecium E7314, E. faecium E980, E. faecalis E1246, E. faecalis E7406 and S. pneumonia 153). The antibacterial activity of the compounds was further tested against S. aureus NY-155, NR-46236, S. aureus HIP12864, NR-46074, S. aureus 880 (BR-VRSA), NR-49120, E. faecalis E1246, E. faecalis E7604, as well as some Gram-negative bacteria (Escherichia coli and Klebsiella pneumoniae). Minimum inhibitory concentrations (MICs) in μg/mL were performed according to the CLSI guidelines. From glycerol stocks, bacterial strains were cultured on blood agar plates and incubated at 37° C. for 18 h. A single colony was transferred to tryptic soy broth (TSB) with 0.002% polysorbate 80 (p80). For the Enterococcus, VISA and VRSA strains, the cultures were grown at 37° C. until the optical density of the suspension reached a level equivalent to the 0.5 McFarland standard. The bacterial suspensions were diluted in TSB with 0.002% p80 to reach a bacterial cell density of 10^6 CFU/mL. In case of the other (vancomycin-sensitive) S. aureus strains, the direct colony suspension method was used. For these strains, after transfer of the colonies to TSB with 0.002% p80, they were immediately diluted to 10^6 CFU/mL, instead of incubated prior to this dilution. In the case of S. pneumonia, direct colony suspension was used by immediately suspending multiple colonies from fresh blood agar plates in TSB+0.002% p80 to an OD600 of 0.5 and subsequent dilution to 10^6 CFU mL^−1 in TSB+0.002% p80+5% lysed horse blood. Antibiotic dilutions for this strains were also made in TSB+0.002% p80+5% lysed horse blood. Both agar and microplates containing S. pneumonia were incubated at 37° C. with 5% CO2 for 24 h with constant shaking (600 rpm). […] The cultures were grown to exponential phase (OD600=0.5) at 37° C. […] In polypropylene 96-well microtiter plates, test compounds were added in biological triplicates and serial diluted 2-fold by transfer and mixing from one well to the next to achieve a final volume of 50 μL per well. An equal volume of bacterial suspension (10^6 CFU mL^−1) was added to the wells. The plates were sealed with breathable membranes and incubated at 37° C. for 24 h with constant shaking (600 rpm). In polypropylene microtiter plates, 100 μL of the test compounds was added to the first row in biological triplicates, and 50 μL of media was added to the other wells. The compounds were subjected to serial dilution by transfer and mixing of 50 μL from one well to the next. Subsequently, 50 μL of bacterial suspension (10^6 CFU/mL) was added to the wells. The plates were sealed with breathable membranes and incubated at 37° C. for 24 h with constant shaking (600 rpm). Positive growth control consisted of wells with bacterial suspension and without antibiotic. Negative growth control consisted of solely media without bacterial suspension or antibiotic. The MICs were determined from the median of a minimum of triplicates.

VRS4 = assay: MIC assay, VISA and VRSA panel
Description: as §1

VRS7 = assay: MIC assay, VISA and VRSA panel
Description: as §1

NRS52 = assay: MIC assay, VISA and VRSA panel
Description: as §1

VRS9 = assay: MIC assay, VISA and VRSA panel
Description: as §1

VRS2 = assay: MIC assay, VISA and VRSA panel
Description: as §1

VRS5 = assay: MIC assay, VISA and VRSA panel
Description: as §1

VRS11b = assay: MIC assay, VISA and VRSA panel
Description: as §1

NRS19 = assay: MIC assay, VISA and VRSA panel
Description: as §1

VRS1 = assay: MIC assay, VISA and VRSA panel
Description: as §1

NRS17 = assay: MIC assay, VISA and VRSA panel
Description: as §1

VRSA3b = assay: MIC assay, VISA and VRSA panel
Description: as §1

VRS8 = assay: MIC assay, VISA and VRSA panel
Description: as §1

VRS11a = assay: MIC assay, VISA and VRSA panel
Description: as §1

VRS3a = assay: MIC assay, VISA and VRSA panel
Description: as §1

NRS18 = assay: MIC assay, VISA and VRSA panel
Description: as §1

NRS51 = assay: MIC assay, VISA and VRSA panel
Description: as §1

MRSA USA300 = assay: MIC assay in the presence of sheep serum; settings: MRSA USA300, TSB + 0.002% p80 + 50% sheep serum
Description: as §1
The activity of the compounds was further assessed against MRSA USA300 strain in the presence of sheep) serum in another MIC assay. The cultures that grew in the presence of serum used TSB+0.002% P80+50% sheep serum as growth media, as opposed to normal MICs done in only TSB+0.002% P80.

Row | Structure (SMILES) | MIC (NRS63SH; Staphylococcus aureus) [mg/L] | MIC (VRS4; Staphylococcus aureus) [mg/L] | MIC (VRS7; Staphylococcus aureus) [mg/L] | MIC (NRS52; Staphylococcus aureus, NRS52) [mg/L] | MIC (VRS9; Staphylococcus aureus) [mg/L] | MIC (VRS2; Staphylococcus aureus) [mg/L] | MIC (VRS5; Staphylococcus aureus) [mg/L] | MIC (VRS11b; Staphylococcus aureus) [mg/L] | MIC (NRS19; Staphylococcus aureus, NRS19) [mg/L] | MIC (VRS1; Staphylococcus aureus) [mg/L] | MIC (NRS17; Staphylococcus aureus, NRS17) [mg/L] | MIC (VRSA3b; Staphylococcus aureus) [mg/L] | MIC (VRS8; Staphylococcus aureus) [mg/L] | MIC (VRS11a; Staphylococcus aureus) [mg/L] | MIC (VRS3a; Staphylococcus aureus) [mg/L] | MIC (NRS18; Staphylococcus aureus, NRS18) [mg/L] | MIC (NRS51; Staphylococcus aureus, NRS51) [mg/L] | further results
1 | CCCCCCCCCCNCCN[C@@]1(C)C[C@H](O[C@H]2[C@H](Oc3c4cc5cc3Oc3ccc(cc3Cl)[C@@H](O)[C@@H](NC(=O)[C@@H](CC(C)C)NC)C(=O)N[C@@H](CC(N)=O)C(=O)N[C@H]5C(=O)N[C@H]3C(=O)N[C@H](C(=O)N[C@H](C(=O)O)c5cc(O)c(CNCP(=O)(O)O)c(O)c5-c5cc3ccc5O)[C@H](O)c3ccc(c(Cl)c3)O4)O[C@H](CO)[C@@H](O)[C@@H]2O)O[C@@H](C)[C@H]1O [Telavancin, reference compound] | 8 (≈ 4.56 µM) | 4 (≈ 2.28 µM) | 4 (≈ 2.28 µM) | 0.25 (≈ 0.142 µM) | 16 (≈ 9.11 µM) | 2 (≈ 1.14 µM) | 4 (≈ 2.28 µM) | 8 (≈ 4.56 µM) | 0.25 (≈ 0.142 µM) | 8 (≈ 4.56 µM) | 1 (≈ 0.57 µM) | 4 (≈ 2.28 µM) | 16 (≈ 9.11 µM) | 8 (≈ 4.56 µM) | 1 (≈ 0.57 µM) | 0.25 (≈ 0.142 µM) | 0.125 (≈ 0.0712 µM) | –
2 | CN[C@H](CC(C)C)C(=O)N[C@H]1C(=O)N[C@@H](CC(N)=O)C(=O)N[C@H]2C(=O)N[C@H]3C(=O)N[C@H](C(=O)N[C@H](C(=O)O)c4cc(O)cc(O)c4-c4cc3ccc4O)[C@H](O[C@H]3C[C@](C)(N)[C@@H](O)[C@H](C)O3)c3ccc(c(Cl)c3)Oc3cc2cc(c3O[C@@H]2O[C@H](CO)[C@@H](O)[C@H](O)[C@H]2O[C@H]2C[C@](C)(NCc3ccc(-c4ccc(Cl)cc4)cc3)[C@@H](O)[C@H](C)O2)Oc2ccc(cc2Cl)[C@H]1O [Oritavancin] | 1 (≈ 0.558 µM) | 1 (≈ 0.558 µM) | 0.5 (≈ 0.279 µM) | 0.5 (≈ 0.279 µM) | 2 (≈ 1.12 µM) | 0.25 (≈ 0.139 µM) | 0.5 (≈ 0.279 µM) | 1 (≈ 0.558 µM) | 1 (≈ 0.558 µM) | 1 (≈ 0.558 µM) | 4 (≈ 2.23 µM) | 0.25 (≈ 0.139 µM) | 1 (≈ 0.558 µM) | 1 (≈ 0.558 µM) | 0.5 (≈ 0.279 µM) | 1 (≈ 0.558 µM) | 0.5 (≈ 0.279 µM) | –
3 | CCCCCCN(CCCCCC)C(N)=Nc1ccc(CN[C@@]2(C)C[C@H](O[C@H]3[C@H](Oc4c5cc6cc4Oc4ccc(cc4Cl)[C@@H](O)[C@@H](NC(=O)[C@@H](CC(C)C)NC)C(=O)N[C@@H](CC(N)=O)C(=O)N[C@H]6C(=O)N[C@H]4C(=O)N[C@H](C(=O)N[C@H](C(=O)O)c6cc(O)cc(O)c6-c6cc4ccc6O)[C@H](O)c4ccc(c(Cl)c4)O5)O[C@H](CO)[C@@H](O)[C@@H]3O)O[C@@H](C)[C@H]2O)cc1 [Compound 12] | – | – | – | – | – | – | – | – | – | – | – | – | – | – | – | – | – | MIC (NRS63SH; strain NRS63SH): 2 mg/L (≈ 1.13 µM); MIC (VRS4; strain VRS4): 2 mg/L (≈ 1.13 µM); MIC (VRS7; strain VRS7): 2 mg/L (≈ 1.13 µM); MIC (NRS52; strain NRS52): 0.031 mg/L (≈ 0.0176 µM); MIC (VRS9; strain VRS9): 4 mg/L (≈ 2.27 µM); MIC (VRS2; strain VRS2): <0.016 mg/L; MIC (VRS5; strain VRS5): 1 mg/L (≈ 0.567 µM); MIC (VRS11b; strain VRS11b): 4 mg/L (≈ 2.27 µM); MIC (NRS19; strain NRS19): 0.25 mg/L (≈ 0.142 µM); MIC (VRS1; strain VRS1): 4 mg/L (≈ 2.27 µM); MIC (NRS17; strain NRS17): 0.5 mg/L (≈ 0.283 µM); MIC (VRSA3b; strain VRSA3b): 0.25 mg/L (≈ 0.142 µM); MIC (VRS8; strain VRS8): 4 mg/L (≈ 2.27 µM); MIC (VRS11a; strain VRS11a): 4 mg/L (≈ 2.27 µM); MIC (VRS3a; strain VRS3a): <0.016 mg/L; MIC (NRS18; strain NRS18): 0.25 mg/L (≈ 0.142 µM); MIC (NRS51; strain NRS51): 0.125 mg/L (≈ 0.0708 µM); MIC (MRSA USA300): 0.063 mg/L
4 | CN[C@H](CC(C)C)C(=O)N[C@H]1C(=O)N[C@@H](CC(N)=O)C(=O)N[C@H]2C(=O)N[C@H]3C(=O)N[C@H](C(=O)N[C@H](C(=O)O)c4cc(O)cc(O)c4-c4cc3ccc4O)[C@H](O)c3ccc(c(Cl)c3)Oc3cc2cc(c3O[C@@H]2O[C@H](CO)[C@@H](O)[C@H](O)[C@H]2O[C@H]2C[C@](C)(N)[C@H](O)[C@H](C)O2)Oc2ccc(cc2Cl)[C@H]1O [Vancomycin, reference compound] | > 128 | > 128 | > 128 | 4 (≈ 2.76 µM) | > 128 | 32 (≈ 22.1 µM) | > 128 | > 128 | 4 (≈ 2.76 µM) | > 128 | 8 (≈ 5.52 µM) | > 128 | > 128 | > 128 | 64 (≈ 44.2 µM) | 8 (≈ 5.52 µM) | 4 (≈ 2.76 µM) | –
